Patent US11028077B2, “Crystalline pharmaceutical and methods of preparation and use thereof” (NOVARTIS PHARMACEUTICALS CORPORATION, priority 2008, dated 2021)

Columns and labels:
[1] = Plasma PK after single topical ocular instillation (dogs and rabbits); details: baseline levels by about 4 hours
[2] = system: dogs (beagles); experiment: Cardiovascular effects in conscious telemetry-instrumented dogs, IV bolus; type: in vivo, dog; details: IV bolus injection
[3] = Skin transport studies on microtomed human skin; type: in vitro ADME; details: 1% (w/w) prototypes; [^14C]-compound
Source text: Prototypes have been developed and tested on microtomed human skin from elective surgery at 1% (w/w). The forms include gels, ointment, or lotion. […]

[4] = system: dogs; experiment: 13-week ocular toxicity study in dogs with 4-week recovery (toxicity and TK); details: dogs (3%)
[5] = system: HuT 78 cell adhesion to 5dICAM-Ig; experiment: Human T-cell adhesion assay (HuT 78 cell adhesion to 5dICAM-Ig); type: cell-based; details: HuT78, HuT 78 cells, read-out: EC50, inhibition of T-cell adhesion
Method: The T-cell adhesion assay was performed using the human T-lymphoid cell line HuT 78 (ATCC TIB-161). Goat anti-HuIgG(Fc) was diluted to 2 μg/ml in PBS and 96-well plates were coated with 50 μl/well at 37° C. for 1 h. Plates were washed with PBS and blocked for 1 h at room temperature with 1% BSA in PBS. 5 domain ICAM-Ig was diluted to 100 ng/ml in PBS and 50 μl/well was added to the plates O/N at 4° C. HuT 78 cells were centrifuged at 100 g and the cell pellet was treated with 5 mM EDTA for ˜5′ at 37° C. in a 5% CO2 incubator. Cells were washed in 0.14 M NaCl, 0.02 M Hepes, 0.2% glucose and 0.1 mM MnCl2 (assay buffer) and centrifuged. The cells were resuspended in assay buffer to 3.0×10^6 c/ml Inhibitors were diluted in assay buffer to a 2× final concentration and pre-incubated with HuT78 cells for 30′ at room temperature. 100 μl/well of cells and inhibitors were added to the plates and incubated at room temperature for 1 h. 100 μl/well PBS was added and the plates were sealed and centrifuged inverted at 100 g for 5′. Unattached cells were flicked out of the plate and excess PBS was blotted on a paper towel. […] The enzyme reaction was stopped with […] 50 mM glycine/5 mM EDTA and read on a platereader at […]. HUT 78 cell adhesion to 5dICAM-Ig was measured using the p-nitrophenyl n-acetyl-f3-D-glucosaminide method of Landegren, U. (1984). […]

[6] = Phase 1 clinical trial, plasma PK analysis; type: in vivo, human
Method: Samples were also obtained at 48 hours post dose on Days 1, 14 and 27 and a single blood sample was collected at the follow-up visit at the end of the study.

[7] = system: rats; experiment: Respiratory function in rats, single IV bolus, head-out plethysmograph; type: in vivo, rat; details: any dose
[8] = Rat ocular pharmacokinetics of [14C]-compound (ocular tissue levels); type: in vivo; details: rat, for 16 hrs
[9] = Single dose ocular and IV ADME study with [14C]-compound in rats, quantitative whole body autoradiography; type: in vivo, rat; details: tissue distribution in pigmented vs albino rats
[10] = system: rats; experiment: CNS effects in rats, single bolus IV injection; type: in vivo, rat; details: 10.0 mg/kg IV, 1 minute to 6 hours postdose, 2/6 animals at each time point
Source text: No effect on any other parameters was observed.

[11] = system: Chinese hamster ovary (CHO) cells; experiment: In vitro chromosomal aberration assay in CHO cells; type: cell-based; details: with and without metabolic activation; except single toxic dose 3500 μg/mL without activation
Source text: The biological relevance of this response is equivocal due to cytotoxicity.

[12] = system: attachment of Jurkat cells to ICAM-1; experiment: T-cell adhesion assay using Jurkat cells; type: cell-based, human
Method: A reported LFA-1 antagonist was used as the positive control.
Jurkat cells were labeled with an 8 μM solution of BCECF-AM (2′,7′-bis-(2-carboxyethyl)-5-(and-6)-carboxyfluorescein) in growth media at room temperature for 15 minutes. […] Non-adherent cells were removed by washing and centrifugation at 100 g for 1 minute. Adherent cells were determined as adherent fluorescent units on a fluorescent plate reader.

[13] = system: rats; experiment: Pilot rat dermal study; type: in vivo; details: 1% lotion, ointment, gel, DMSO; TID seven days, 10 mg/cm^2
Method: The safety and tolerability of prototypical dermal formulations (1% lotion, ointment, and gel) were assessed on rats given TID for seven consecutive days—approximately 6 cm^2 with 10 mg/cm^2.

[14] = system: rabbits; experiment: Single dose ocular tolerance in rabbits; type: in vivo, rabbit; details: rabbits (10%)
[15] = system: dogs; experiment: Acute toxicity, escalating single dose IV and 7-day repeated dose with TK in dogs; type: in vivo, dog; details: escalating single dose IV and 7-day repeated dose
Method: 4. Acute Toxicity Studies: For single dose IV in rats, the no observable adverse effect level (NOAEL) was 10 mg/kg IV. For escalating single dose IV and 7-day repeated dose with TK (toxicokinetics) in dogs, the NOAEL was 10 mg/kg IV. For single dose ocular tolerance in rabbits, the NOAEL was 3.5 mg/eye/3× per day (10%).

[16] = system: CD-1 (ICR) BR mice; experiment: In vivo mouse bone marrow micronucleus assay; details: repeated IV administrations
[17] = system: mini-pigs; experiment: Pilot mini-pig dermal study
[18] = system: dogs; experiment: Pilot ocular tolerance / PK of topically administered compound in dogs; type: in vivo, dog; details: up to 10% strength at 3 doses/day
[19] = system: rats; experiment: 13-week IV toxicity study in rats with 4-week recovery (toxicity and plasma exposure); type: in vivo, rat
[20] = daily IV bolus 3 mg/kg, Week 13
[21] = daily IV bolus 10 mg/kg, Week 13
[22] = daily IV bolus 30 mg/kg, Week 13

## CS(=O)(=O)c1cccc(C[C@H](NC(=O)c2c(Cl)cc3c(c2Cl)CCN(C(=O)c2ccc4ccoc4c2)C3)C(=O)O)c1 [compound of Formula I]
[1]
  time of maximum plasma concentration post-dose: about 0.25 hrs
[2]
  effects on electrocardiography or hemodynamic parameters: No effects on electrocardiography or hemodynamic parameters
[3]
  concentration in dermis: greater than 10 micromolar
  dose penetration: 2-4%
[4]
  NOAEL: 1.05 mg/eye/3× per day
[5]
  EC50: < 50 nM
[6]; 0.1% dose strength, single and multiple doses, all timepoints (BLOQ)
  plasma concentration: < 0.500 ng/mL
[6]; 0.3% dose strength, single and multiple doses, all timepoints (BLOQ)
  plasma concentration: < 0.500 ng/mL
[6]; 1% dose strength, 3 of 5 subjects (BLOQ)
  plasma concentration: < 0.500 ng/mL
[6]; 5% dose strength, generally not detectable after the first hour
  plasma concentration: < 3 ng/mL
[7]
  respiratory function (tidal volume, respiration rate, minute volume): No adverse changes in respiratory function or adverse effects
[8]
  levels in conjunctiva/cornea: > 100 nM
[9]
  binding to melanin: did not preferentially bind to melanin
[10]
  CNS observation: Transient miosis
[11]
  induction of structural chromosomal aberrations: negative for inducing structural chromosomal aberrations
[12]
  Jurkat cell attachment to ICAM-1: inhibition of Jurkat cell attachment with increasing dose
[12]; compared with positive control, a reported LFA-1 antagonist
  dose response curve and IC50: comparable to that of the known direct competitive LFA-1 antagonist
[13]
  serum level: detectable in serum
[14]
  NOAEL: 3.5 mg/eye/3× per day
[15]
  NOAEL: 10 mg/kg
[16]
  micronuclei in polychromatic erythrocytes: negative
[17]; DMSO, gel, ointment, lotion at 1%, dermal TID for 7 days, 10 mg/cm^2
  toxicity: No toxicity
[17]; all groups, below the LLOQ
  plasma level: < 0.5 ng/mL
[18]
  ocular safety and tolerability: safe and well tolerated
[19]; daily IV bolus 3 mg/kg, Day 1
  AUC0-n: 148.3 ng·h/mL
  Cmax: 305.2 ng/mL
[19]; [20]
  AUC0-n: 241.4 ng·h/mL
  Cmax: 377.5 ng/mL
[19]; daily IV bolus 10 mg/kg, Day 1
  AUC0-n: 535.6 ng·h/mL
  Cmax: 1045.3 ng/mL
[19]; [21]
  AUC0-n: 907.1 ng·h/mL
  Cmax: 1691.5 ng/mL
[19]; daily IV bolus 30 mg/kg, Day 1
  AUC0-n: 2345.5 ng·h/mL
  Cmax: 5117.3 ng/mL
[19]; [22]
  AUC0-n: 7471.5 ng·h/mL
  Cmax: 16932.8 ng/mL
